Where a SMILES comes first, the peptide text is derived from it. [ ]: non-standard residue; d: D form. The star is where a group is joined. Fumaryl(OMe) = COC(=O)/C=C/C(=O)*; Dap = NC[C@H](N)C(=O)O
Test system: C. albicans isolates NF1-3 and LNF1-3
Assay: Initial peptide uptake rate by isolates resistant to F2/F3
Assay type: cell-based, Candida albicans
Conditions: all six isolates NF1-3, LNF1-3; Figure 4
Procedure: Yeast cells grown exponentially in the YNB-SG medium were harvested by centrifugation (3000 ×g, 5 min), washed with 50 mM potassium phosphate buffer (pH 5.0 or 6.5), and suspended in the same buffer containing 1% glucose, to a final cell density corresponding to A660 ≅ 1.0. The cell suspension was incubated at 30°C. After 10 min, an oligopeptide solution was added, to give a final concentration of 100 μM. At that moment and at 5 min intervals thereafter, 2 mL samples of the cell suspension were withdrawn, immediately filtered through the Whatman GF/A filters and the filtrates were used to determine the residual peptide concentration. Then, the 1 mL portions of the filtrates were taken and combined with 1.25 mL aliquots of a solution containing 4% Na2B4O7 × 10 H2O and 0.8 mg mL^-1 of 2,4,6-trinitrobenzenesulfonate. The reaction was carried out at 37°C for 30 min. The A420 values were measured and the peptide concentration was read from the appropriate standard curve. Data were plotted as nanomoles of an oligopeptide, taken up by 1 mg (dry weight) of cells versus time. The initial uptake velocities were determined from the slopes of the linear part of the curves, in the 0- to 10-min region.
It is therefore clear that the diminished sensitivity of all six isolates to F2 and F3 was due to the reduced uptake, most likely by permease(s) of the PTR system.

Compound: COC(=O)/C=C/C(=O)NC[C@H](NC(=O)[C@H](CCSC)NC(=O)[C@@H](NC(=O)[C@@H]1CCCN1C(=O)[C@H](CC(C)C)NC(=O)[C@@H](N)CCCCN)C(C)C)C(=O)O [Peptide F6, Lys-Leu-Pro-Val-Met-FMDP] (H-KLPVM[Dap](Fumaryl(OMe))-OH; N-terminus and C-terminus assumed)
- Initial uptake rate relative to wild type SC5314 cells: nearly the same or even somewhat higher

Source: paper PMC5673977, “Transport Deficiency Is the Molecular Basis of Candida albicans Resistance to Antifungal Oligopeptides” (Frontiers in Microbiology, 2017)
